Data published in the NIST ThermoML archive (doi:10.1016/j.fluid.2004.09.013).

Conditions: for mass density: Fluid (supercritical or subcritical phases), Vibrating tube method; for vapor or sublimation pressure: Liquid

C=C(C)C [2-methylpropene]
Conditions | mass density [kg/m3]
273.23 K, 615 kPa | 619.2
273.23 K, 9987 kPa | 631.07
273.23 K, 15001 kPa | 636.64
273.23 K, 20001 kPa | 641.78
273.23 K, 25007 kPa | 646.58
273.23 K, 29992 kPa | 651.06
273.23 K, 34986 kPa | 655.29
273.23 K, 40007 kPa | 659.29
273.24 K, 5018 kPa | 625.04
278.24 K, 625 kPa | 613.32
278.24 K, 9983 kPa | 625.79
278.24 K, 29985 kPa | 646.57
278.25 K, 4992 kPa | 619.43
278.25 K, 14997 kPa | 631.6
278.25 K, 19994 kPa | 636.96
278.25 K, 24995 kPa | 641.93
278.25 K, 35001 kPa | 650.96
278.25 K, 39983 kPa | 655.07
283.26 K, 623 kPa | 607.34
283.26 K, 4980 kPa | 613.78
283.26 K, 10001 kPa | 620.49
283.26 K, 15002 kPa | 626.55
283.26 K, 19992 kPa | 632.11
283.26 K, 24993 kPa | 637.28
283.26 K, 29994 kPa | 642.09
283.26 K, 34999 kPa | 646.62
283.26 K, 39994 kPa | 650.87
288.27 K, 622 kPa | 601.26
288.27 K, 4986 kPa | 608.09
288.27 K, 9999 kPa | 615.12
288.27 K, 15002 kPa | 621.46
288.27 K, 20000 kPa | 627.26
288.27 K, 24990 kPa | 632.61
288.27 K, 30003 kPa | 637.6
288.27 K, 35005 kPa | 642.28
288.27 K, 40002 kPa | 646.66
293.28 K, 624 kPa | 595.08
293.28 K, 4999 kPa | 602.33
293.28 K, 9991 kPa | 609.69
293.28 K, 14989 kPa | 616.34
293.28 K, 19994 kPa | 622.38
293.28 K, 24993 kPa | 627.94
293.28 K, 30001 kPa | 633.11
293.28 K, 35003 kPa | 637.94
293.28 K, 39987 kPa | 642.44
298.3 K, 624 kPa | 588.78
298.3 K, 4988 kPa | 596.46
298.3 K, 9992 kPa | 604.23
298.3 K, 14991 kPa | 611.17
298.3 K, 20004 kPa | 617.49
298.3 K, 25009 kPa | 623.26
298.3 K, 30005 kPa | 628.61
298.3 K, 34998 kPa | 633.59
298.3 K, 40003 kPa | 638.26
303.3 K, 638 kPa | 582.38
303.3 K, 14996 kPa | 606.02
303.3 K, 19992 kPa | 612.59
303.3 K, 24991 kPa | 618.59
303.3 K, 34996 kPa | 629.29
303.3 K, 39999 kPa | 634.1
303.31 K, 4990 kPa | 590.52
303.31 K, 9994 kPa | 598.73
303.31 K, 29988 kPa | 624.13
308.31 K, 706 kPa | 575.94
308.32 K, 4988 kPa | 584.48
308.32 K, 9989 kPa | 593.14
308.32 K, 14992 kPa | 600.77
308.32 K, 19998 kPa | 607.63
308.32 K, 24997 kPa | 613.87
308.32 K, 30005 kPa | 619.62
308.32 K, 34988 kPa | 624.91
308.32 K, 40003 kPa | 629.89
313.2 K, 951 kPa | 569.89
313.2 K, 4993 kPa | 578.43
313.2 K, 9992 kPa | 587.58
313.2 K, 14986 kPa | 595.55
313.2 K, 19994 kPa | 602.7
313.2 K, 24994 kPa | 609.17
313.2 K, 29987 kPa | 615.08
313.2 K, 34991 kPa | 620.58
313.2 K, 40013 kPa | 625.7
318.21 K, 1034 kPa | 563.28
318.21 K, 4991 kPa | 572.22
318.21 K, 9993 kPa | 581.88
318.21 K, 15000 kPa | 590.28
318.21 K, 20002 kPa | 597.73
318.21 K, 24998 kPa | 604.47
318.21 K, 29993 kPa | 610.61
318.21 K, 34995 kPa | 616.28
318.21 K, 39991 kPa | 621.54
323.22 K, 1130 kPa | 556.5
323.22 K, 5015 kPa | 565.89
323.22 K, 10019 kPa | 576.14
323.22 K, 15017 kPa | 584.94
323.22 K, 20010 kPa | 592.7
323.22 K, 25016 kPa | 599.69
323.22 K, 30006 kPa | 606.04
323.22 K, 34990 kPa | 611.88
328.22 K, 1213 kPa | 549.51
328.22 K, 4997 kPa | 559.34
328.22 K, 10001 kPa | 570.24
328.22 K, 14997 kPa | 579.49
328.22 K, 19998 kPa | 587.62
328.22 K, 24989 kPa | 594.87
328.22 K, 29993 kPa | 601.47
328.22 K, 35002 kPa | 607.53
333.22 K, 1303 kPa | 542.34
333.22 K, 4983 kPa | 552.65
333.22 K, 9997 kPa | 564.28
333.22 K, 15001 kPa | 574.03
333.22 K, 19998 kPa | 582.51
333.22 K, 25001 kPa | 590.09
333.22 K, 30012 kPa | 596.94
333.22 K, 34994 kPa | 603.17
338.22 K, 1401 kPa | 534.97
338.22 K, 4983 kPa | 545.83
338.22 K, 9985 kPa | 558.2
338.22 K, 14988 kPa | 568.49
338.22 K, 20002 kPa | 577.4
338.22 K, 24995 kPa | 585.25
338.22 K, 30004 kPa | 592.35
338.22 K, 34989 kPa | 598.79
338.23 K, 39972 kPa | 604.69
343.22 K, 1507 kPa | 527.38
343.22 K, 4990 kPa | 538.84
343.22 K, 14984 kPa | 562.89
343.22 K, 19992 kPa | 572.21
343.22 K, 24986 kPa | 580.39
343.23 K, 10002 kPa | 552.06
343.23 K, 29994 kPa | 587.74
343.23 K, 35010 kPa | 594.44
348.23 K, 1624 kPa | 519.55
348.23 K, 4982 kPa | 531.6
348.23 K, 9996 kPa | 545.8
348.23 K, 15003 kPa | 557.28
348.23 K, 19988 kPa | 566.99
348.23 K, 24994 kPa | 575.52
348.23 K, 29995 kPa | 583.14
348.23 K, 34998 kPa | 590.02
353.23 K, 1750 kPa | 511.45
353.23 K, 4999 kPa | 524.22
353.23 K, 9995 kPa | 539.41
353.23 K, 15002 kPa | 551.55
353.23 K, 19988 kPa | 561.74
353.23 K, 24993 kPa | 570.61
353.23 K, 29992 kPa | 578.51
353.23 K, 35002 kPa | 585.65
358.23 K, 1880 kPa | 503.02
358.23 K, 4995 kPa | 516.51
358.23 K, 9992 kPa | 532.9
358.23 K, 14994 kPa | 545.74
358.23 K, 19987 kPa | 556.44
358.23 K, 25000 kPa | 565.71
358.23 K, 29992 kPa | 573.87
358.23 K, 34986 kPa | 581.23
363.23 K, 2029 kPa | 494.29
363.23 K, 4995 kPa | 508.53
363.23 K, 9990 kPa | 526.24
363.23 K, 14992 kPa | 539.87
363.23 K, 19984 kPa | 551.08
363.23 K, 25007 kPa | 560.75
363.23 K, 29987 kPa | 569.21
363.23 K, 34996 kPa | 576.84
368.23 K, 2186 kPa | 485.16
368.23 K, 4992 kPa | 500.2
368.23 K, 9984 kPa | 519.43
368.23 K, 14990 kPa | 533.92
368.23 K, 29990 kPa | 564.54
368.24 K, 19992 kPa | 545.7
368.24 K, 25001 kPa | 555.77
368.24 K, 35000 kPa | 572.42
373.23 K, 2351 kPa | 475.57
373.23 K, 29996 kPa | 559.86
373.23 K, 34996 kPa | 567.99
373.24 K, 4995 kPa | 491.52
373.24 K, 9984 kPa | 512.47
373.24 K, 14991 kPa | 527.88
373.24 K, 19998 kPa | 540.27
373.24 K, 25004 kPa | 550.75
373.24 K, 39995 kPa | 575.36
378.24 K, 2531 kPa | 465.5
378.24 K, 4999 kPa | 482.41
378.24 K, 9996 kPa | 505.39
378.24 K, 14983 kPa | 521.73
378.24 K, 19996 kPa | 534.78
378.24 K, 25004 kPa | 545.72
378.24 K, 29995 kPa | 555.17
378.24 K, 34988 kPa | 563.54
383.24 K, 2689 kPa | 454.37
383.24 K, 4984 kPa | 472.67
383.24 K, 9995 kPa | 498.07
383.24 K, 14986 kPa | 515.53
383.24 K, 20004 kPa | 529.26
383.24 K, 25006 kPa | 540.65
383.24 K, 29986 kPa | 550.43
383.24 K, 34992 kPa | 559.1
388.24 K, 2901 kPa | 443.01
388.24 K, 4994 kPa | 462.48
388.24 K, 9997 kPa | 490.56

Conditions | vapor or sublimation pressure [kPa]
285.97 K | 206.58
297.46 K | 297.04
307.88 K | 404.2
315.82 K | 503.41
324.78 K | 633
328.93 K | 704.67
337.82 K | 871.92
348.26 K | 1100.8
357.33 K | 1343.9
364.25 K | 1545.1
371.52 K | 1784.7
380.19 K | 2094.5
386.12 K | 2332.7
